Drawing on publication PMC4213943 (ChemMedChem, 2014), this text covers X-ray crystal structure for two compounds.

In this assay the target is G-actin (Prodan-G-actin; actin) (Oryctolagus cuniculus, UniProt P68135). Kind of assay: X-ray crystal structure. Type of assay: binding. The conditions noted are these: nucleotide site.

Structures are written as SMILES.

Regarding `Nc1ncnc2c1ncn2[C@@H]1O[C@H](COP(=O)(O)OP(=O)(O)OP(=O)(O)O)[C@@H](O)[C@H]1O` [ATP], the X-ray crystal structure entry (actin co-crystallised with kabiramide C, Ca2+) is “ATP is bound to the actin in the KabC complex”.
`Nc1ncnc2c1ncn2[C@@H]1O[C@H](COP(=O)(O)OP(=O)(O)O)[C@@H](O)[C@H]1O` [ADP]: the X-ray crystal structure entry (actin co-crystallised with SF-01 or GC-04, Ca2+) is “complexes with GC-04 and SF-01 is occupied by ADP”.
